Patent publication US5081121A, “4(1H)-quinolone derivatives” (priority 1988, dated 1992)

Legend:
right atrial muscle = assay: Test Method 1: enhancing rate of the pulsation of the right atrial muscle extirpated from a guinea pig; assay type: cell-based
Description: The drug according to the present invention was evaluated with reference to the physiological activities by means of a method using an atrial muscle extirpated from a guinea pig.
Male guinea pigs having a body weight of 300-500 g were made swooned by striking his head and were bleeded to death. The heart was extirpated and the right and left atrial muscles were cut off. The tops of each atrial muscle were fixed with cerrefines. The muscle was suspended into an organ-bath in which a Krebs-Henseleit solution (at 32° C.) was filled, and a 95% O2 -5% CO2 gas was flown through the bath. The left atrial muscle was stimulated electrically at a frequency of 1 Hz to stabilize the contracting force of the left atrial muscle. Then, the compounds according to the present invention represented by the general formulae were added to the organ-bath. As for the right atrial muscle, after the pulsation was stabilized, the compounds according to the present invention were added in the organ-bath in the same manner as described above.
The compounds according to the present invention represented by the aforementioned general formulae enhanced the left atrial muscle contracting force dependent on their concentrations. The drug concentrations for enhancing the left atrial muscle contracting force to the levels of 20%, 50% and 100%, respectively are listed in Table 2. EC20, EC50 and EC100 indicate the molar concentration for enhancing the left atrial muscle contracting force to the levels of 20%, 50% and 100%, respectively. The enhancing rates of the pulsation of the right atrial muscle are also listed within parentheses. The minus values in parentheses indicate that the pulsation of the right atrial muscle is decreased.
As a control drug, theophylline ([…].

heart muscle = assay: Test Method 2: effect on heart muscle contracting force in an anesthetized dog (LV-dP/dtmax); assay type: in vivo; details: anesthetized Beagle dogs, 1 mg/kg through a cannula inserted into vein; increasing rate, value at initiation set as 100%
Description: The compounds according to the present invention was evaluated with reference to the effect on heart muscle contracting force by means of a method using an anesthetized dog.
Beagle dogs having a body weight of 8-11 kg were used for the experiment. They were anesthetized by intraperitoneal administration of a sodium salt of pentobarbital (35 mg/kg) and, if necessary, of additional small amount of the sodium salt of pentobarbital. Anesthesia was maintained by administering the sodium salt of pentobarbital in a dose of 5 mg/kg/hour through a cannula inserted within a vein. Breathing was performed through a cannula inserted within a trachea with a respirator. The maximum accelerations of contracting the […] (LV-dp/dtmax) were measured with a pressure transducer inserted into the left ventricle. Compounds tested was administered in a dose of 1 mg/kg through a cannula inserted into the other vein. The parameters were expressed as the increasing rate (Δ%) after dosing of the drug with the value at the initiation when the drug was administered being set as 100%.

left atrial muscle = assay: Test Method 1: enhancement of contracting force of left atrial muscle extirpated from a guinea pig (electrically stimulated at 1 Hz); assay type: cell-based; details: Cavia porcellus, Krebs-Henseleit solution 32° C.; for EC20: read-out: EC20 (molar concentration for enhancing the left atrial muscle contracting force to the level of 20%); for EC50: read-out: EC50 (molar concentration for enhancing the left atrial muscle contracting force to the level of 50%); for EC100: read-out: EC100 (molar concentration for enhancing the left atrial muscle contracting force to the level of 100%)
[1] = minus values: pulsation is decreased

enhancing rate of the pulsation of the right atrial muscle (in parentheses under EC50) (right atrial muscle; [1]) [%]	EC50 (left atrial muscle) [µM]	SMILES	enhancing rate of the pulsation of the right atrial muscle (in parentheses under EC20) (right atrial muscle; [1]) [%]	enhancing rate of the pulsation of the right atrial muscle (in parentheses under EC100) (right atrial muscle; in EC100, minus values: pulsation is decreased) [%]	ΔLV-dP/dtmax (%) (heart muscle)	EC20 (left atrial muscle) [µM]	EC100 (left atrial muscle) [µM]	effect on heart rate (in words) (right atrial muscle; from the results of Table 2)
16.8	70.8	COc1cc2c(=O)cc[nH]c2cc1OC(C)C [Compound 51, 7-i-propoxy-6-methoxy-4(1H)-quinolone]	6.2	16.5	41.2	20	1000	–
-0.8	9.77	CCOC(=O)c1cn(CC)c2ccc(CC)cc2c1=O [Compound 85, 1,6-diethyl-3-ethoxycarbonyl-4(1H)-quinolone]	-1.2	–	25.0	1.58	–	–
16.3	18.2	COc1cc2[nH]c(C3CC3)cc(=O)c2cc1OC [Compound 95, 2-cyclopropyl-6,7-dimethoxy-4(1H)-quinolone]	2.8	–	46.9	1.78	94.4	–

SMILES	enhancing rate of the pulsation of the right atrial muscle (in parentheses under EC50) (right atrial muscle; [1]) [%]	EC50 (left atrial muscle) [µM]	enhancing rate of the pulsation of the right atrial muscle (in parentheses under EC20) (right atrial muscle; [1]) [%]	enhancing rate of the pulsation of the right atrial muscle (in parentheses under EC100) (right atrial muscle; in EC100, minus values: pulsation is decreased) [%]	ΔLV-dP/dtmax (%) (heart muscle)	EC20 (left atrial muscle) [µM]	EC100 (left atrial muscle) [µM]	effect on heart rate (in words) (right atrial muscle; from the results of Table 2)
Cn1c(=O)c2[nH]cnc2n(C)c1=O [Theophylline, theophylline, reference compound]	20.0	302	7.3	–	18.8	72.4	–	increased significantly
